Laboratory results from patent publication US11026942B2, “Agent for preventing and/or treating Alzheimer's disease” (KYOTO UNIVERSITY, priority 2015, dated 2021).
Where two headings read alike, the source gives them in different places.

What was measured:
Format in all cases: cell-based, human
Aβ = Aβ pathology (Aβ amount in medium) in cerebral cortex nerve cells induced from FAD1 patient iPS cells; settings: for Aβ pathology / Aβ lesion (Aβ amount): FAD1 nerve cells; for Aβ pathology: low dose; for Aβ lesion (Aβ amount): compounds added 8 days after differentiation induction, Aβ amount two days later
Excerpt: To perform induction from iPS cells to the cerebral cortex nerve early and with high reproducibility, iPS cells introduced with human Neurogenin 2 gene (NGN2) linked to doxycycline-inducible promoter by using PiggyBac were used (FIG. 1a, FIG. 1b, FIG. 4a and FIG. 4b). IPS cells prepared from 4 patients with familial Alzheimer's disease (FAD), 2 patients with sporadic Alzheimer's disease (SAD) and 4 healthy individuals (HC) were used. The iPS cells were established by the method described in Okita K et al., Nature. […]
(§1) To further study reproducibility of the candidate drugs obtained by the primary screening, secondary screening was conducted. In addition to Aβ40, Aβ42, Aβ42/40 ratio, Aβ38, Aβ43, sAPPα, sAPPβ were also studied and each numerical value was obtained.

Aβ42 = Aβ42 in FAD1 iPS cell-derived nerve cells (primary/secondary screening, dose dependency)
Outline: (§2)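 Cerebral cortex neurons were induced from FAD1 patient iPS cells by doxycycline-inducible NGN2, delivered by PiggyBac. Aβ40 and Aβ42 in the culture medium gave the Aβ42/40 ratio, with dose dependency examined in primary and secondary screens. The secondary screen also covered Aβ38, Aβ43, sAPPα and sAPPβ.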

sAPPα = sAPPα in FAD1 iPS cell-derived nerve cells (secondary screening); design: scale not given here
Method: as §1

sAPPβ = sAPPβ in FAD1 iPS cell-derived nerve cells (secondary screening); design: sAPPβ: scale not given here
Method: as §1

Aβ42/40 ratio = Aβ42/40 ratio in FAD1 iPS cell-derived nerve cells (primary/secondary screening, dose dependency); settings: secondary screening
Outline: as §2

Aβ43 = Aβ43 in FAD1 iPS cell-derived nerve cells (secondary screening); design: scale not given here
Method: as §1

Aβ38 = Aβ38 in FAD1 iPS cell-derived nerve cells (secondary screening); design: scale not given here
Method: as §1

[1] = secondary screening, FAD1 iPS cell-derived nerve cells
[2] = secondary screening, FAD1 iPS cell-derived nerve cells, numerical value (Aβ change rate)

Row | Compound | Aβ pathology (Aβ) | Aβ suppressive effect (dopamine series) (Aβ) | Aβ lesion (Aβ amount) (Aβ) | Aβ42 (Aβ42; FAD1 nerve cells, low dose) | sAPPα (sAPPα; [1]) | sAPPβ (sAPPβ; [1]) | Ratio Aβ42/40 (Aβ42/40 ratio) | Aβ43 (Aβ43) | Aβ38 (Aβ38) | Aβ42 (Aβ42; [2]) | sAPPα (sAPPα) | sAPPβ (sAPPβ)
1 | CC(C(=O)O)c1ccc(-c2ccccc2)c(F)c1 (stereo not drawn) [Flurbiprofen] | not improved | – | – | – | – | – | – | – | – | – | – | –
2 | Cc1ccc(NC(=O)c2ccc(CN3CCN(C)CC3)cc2)cc1Nc1nccc(-c2cccnc2)n1 [imatinib] | not improved | – | – | – | – | – | – | – | – | – | – | –
3 | CC(N)Cc1ccccc1 (stereo not drawn) [amphetamine] | – | show effects | – | – | – | – | – | – | – | – | – | –
4 | COc1cc(C)c(/C=C/C(C)=C/C=C/C(C)=C/C(=O)O)c(C)c1C [acitretin] | – | – | improved Aβ lesion | – | – | – | – | – | – | – | – | –
5 | CC(C)[C@H](O)C(=O)N[C@@H](C)C(=O)N[C@@H]1C(=O)N(C)CCc2ccccc21 [semagacestat] | – | – | improved Aβ lesion | increased | – | – | – | – | – | – | – | –
6 | CC(NC(=O)c1cc(C(=O)NC(Cc2ccccc2)C(O)CNC2CC2)cc(N(C)S(C)(=O)=O)c1)c1ccccc1 (racemic) [RACE inhibitor IV] | – | – | improved Aβ lesion | – | – | – | – | – | – | – | – | –
7 | NCCCCCC(=O)O [compound 49, AMINOCAPROIC ACID] | – | – | – | – | 0.99 | 0.9 | 1 | 0.97 | 1.1 | 0.96 | – | –
8 | c1ccc2[nH]c(-c3cscn3)nc2c1 [compound 20, THIABENDAZOLE] | – | – | – | – | 0.79 | 0.67 | 0.88 | 0.79 | 1.05 | 0.84 | – | –
9 | CC1CC(OC(=O)C(O)c2ccccc2)CC(C)(C)C1 (stereo not drawn) [compound 40, CYCLANDELATE] | – | – | – | – | 0.92 | 0.84 | 0.8 | 0.98 | 1.09 | 0.88 | – | –
10 | CC1=C(CC(=O)O)c2cc(F)ccc2/C1=C\c1ccc([S+](C)[O-])cc1 (stereo not drawn) [sulindac] | not improved | – | – | – | – | – | – | – | – | – | – | –
11 | Cc1cccc(C)c1NC(=O)C1CCCCN1C (stereo not drawn) [compound 2, MEPIVACAINE] | – | – | – | – | 0.77 | 0.88 | 0.93 | 0.83 | 1.01 | 0.9 | – | –
12 | Nc1ccc(C(=O)O)c(O)c1 [compound 50, AMINOSALICYLATE] | – | – | – | – | 1 | 1.31 | 1.08 | 1.22 | 1.2 | 1.03 | – | –
13 | CCN(CC)C(=S)SSC(=S)N(CC)CC [compound 112] | – | – | – | – | 0.78 | 0.89 | 0.97 | 0.98 | 1.1 | 0.91 | – | –
14 | Cc1ncc(CNC(=O)N(CCCl)N=O)c(N)n1 [compound 83, NIMUSTINE] | – | – | – | – | 0.81 | 0.89 | 0.86 | 0.89 | 1.04 | 0.84 | – | –
15 | CC(C)(C)NCC(O)c1ccccc1Cl (stereo not drawn) [compound 82, TULOBUTEROL] | – | – | – | – | 0.87 | 0.74 | 0.85 | 0.84 | 1 | 0.83 | – | –
16 | CC(C)C[C@H](C(=O)O)c1cc(-c2ccc(C(F)(F)F)cc2)cc(-c2ccc(C(F)(F)F)cc2)c1 [JNJ-40418677] | – | – | improved Aβ lesion | – | – | – | – | – | – | – | – | –

Row | Compound | Aβ pathology (Aβ) | Aβ suppressive effect (dopamine series) (Aβ) | Aβ lesion (Aβ amount) (Aβ) | Aβ42 (Aβ42; FAD1 nerve cells, low dose) | sAPPα (sAPPα; [1]) | sAPPβ (sAPPβ; [1]) | Ratio Aβ42/40 (Aβ42/40 ratio) | Aβ43 (Aβ43) | Aβ38 (Aβ38) | Aβ42 (Aβ42; [2]) | sAPPα (sAPPα) | sAPPβ (sAPPβ)
17 | C=C[C@H]1CN2CC[C@H]1C[C@H]2[C@H](OC(=O)OCC)c1ccnc2ccc(OC)cc12 [compound 41, QUININE ETHYL CARBONATE] | – | – | – | – | 0.84 | 0.72 | 0.77 | 0.88 | 1.05 | 0.85 | – | –
18 | Cc1cccc(O)c1 [compound 89, CRESOL] | – | – | – | – | 0.71 | 0.58 | 0.91 | 0.89 | 0.93 | 0.81 | – | –
19 | O=C1CCc2cc(OCCCCc3nnnn3C3CCCCC3)ccc2N1 [compound 107, CILOSTAZOL] | – | – | – | – | 0.78 | 0.68 | 0.86 | 0.82 | 1.01 | 0.85 | – | –
20 | CNCCc1ccccn1 [compound 21, BETAHISTINE] | – | – | – | – | 0.73 | 0.91 | 1.08 | 0.87 | 1.01 | 0.98 | – | –
21 | O=C(O)C(O)[C@H](O)[C@@H](O)[C@H](O)[C@H](O)CO (stereo partly drawn) [compound 56, GLUCOHEPTONIC ACID] | – | – | – | – | 1.22 | 1.19 | 1.09 | 1.32 | 1.21 | 0.98 | – | –
22 | CN(C)CCc1c[nH]c2ccc(Cn3cncn3)cc12 [compound 80, RIZATRIPTAN] | – | – | – | – | 0.96 | 1.08 | 0.85 | 1.07 | 1.2 | 0.96 | – | –
23 | COc1ccc(C(=O)c2ccccc2O)c(O)c1 [compound 54, DIOXYBENZONE] | – | – | – | – | 0.72 | 0.75 | 1.02 | 0.83 | 1.16 | 0.93 | – | –
24 | CCN(CCCc1ccccc1)CCCc1ccccc1 [compound 7, ALVERINE] | – | – | – | – | 0.78 | 0.63 | 0.93 | 0.79 | 0.94 | 0.86 | – | –
25 | CC(N=C(NC#N)Nc1ccncc1)C(C)(C)C (stereo not drawn) [compound 74] | – | – | – | – | 0.83 | 0.96 | 0.84 | 0.79 | 0.92 | 0.72 | – | –
26 | CC(C)c1cccc(C(C)C)c1O [compound 87, PROPOFOL] | – | – | – | – | – | – | 0.91 | 0.88 | 0.99 | 0.88 | 0.94 | 1
27 | Nc1ccn([C@@H]2O[C@H](CO)[C@@H](O)[C@@H]2O)c(=O)n1 [compound 115, CYTARABINE] | – | – | – | – | 0.74 | 0.69 | 0.9 | 0.81 | 0.99 | 0.8 | – | –
28 | OC1CCCCC1N1CCC(c2ccccc2)CC1 (stereo not drawn) [compound 22, VESAMICOL] | – | – | – | – | 0.89 | 0.74 | 0.97 | 0.87 | 1 | 0.9 | – | –
29 | COc1cc2nc(N(C)CCCNC(=O)C3CCCO3)nc(N)c2cc1OC (stereo not drawn) [compound 81, ALFLUZOSIN] | – | – | – | – | 0.9 | 0.97 | 0.87 | 1.03 | 1.22 | 0.96 | – | –
30 | COc1ccccc1N1CCN(CC(O)COc2cccc3ccccc23)CC1 (stereo not drawn) [compound 39, NAFTOPIDIL] | – | – | – | – | 0.73 | 0.64 | 0.86 | 0.9 | 1.1 | 0.86 | – | –
31 | CCN(CC)C(C)CN1c2ccccc2Sc2ccccc21 (stereo not drawn) [compound 15, ETHOPROPAZINE] | – | – | – | – | 0.72 | 0.71 | 0.88 | 0.84 | 1.03 | 0.84 | – | –
32 | CCN(CC)CCNC(=O)c1cc(Br)c(N)cc1OC [compound 86, BROMOPRIDE] | – | – | – | – | 1 | 0.85 | 0.84 | 0.9 | 1.07 | 0.84 | – | –
